Series [1] in a line: RLM stability (Low Activity). It is filed as in vitro ADME, Sprague Dawley rats. The conditions noted are these: male, Sprague Dawley, rat, liver microsomes, pH 7.4, Condition 1 (Low Activity), 0.50 mg protein/mL. Summed up: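 Pooled male Sprague Dawley rat liver microsomes (0.50 mg/mL) in PBS pH 7.4 with 1 mM MgCl2 and 1 mM NADPH; compound 1 μM, 1.0% solvent, 37° C. Six time points over 60 min, parent remaining by LC-MS/MS; kel, t1/2 and Clint from linear regression of ln(AUC) versus time.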
In general terms: Liver microsomes are a subcellular fraction often used to study metabolism.

Series [2] is described as follows: Oral bioavailability in rats, Method B. It counts as in vivo. As to conditions: Sprague Dawley rats; for AUC(0-t) / half-life / Cmax: male, rat; for AUC(0-t) / half-life / Cmax / F: plasma, Method B; for F: 10 mg/kg. On the procedure: Animals. Male Sprague Dawley rats were used in these studies. Animals were randomly assigned to treatment groups and were fasted overnight before oral dosing.
Drugs. Test compounds were dissolved in a vehicle consisting of normal saline (compounds 14R, 88R, 29rac, and 27rac) or a mixture of 5% v/v N-methyl-2-pyrrolidone, 5% v/v Solutol HS-15, and 90% v/v normal saline (compounds 84R and 84S). They were then administered intravenously (iv) or orally (po) at a dose of 10 mg/kg (calculated based on freebase) and at a volume of 5 mL/kg body weight. Compounds were tested as the racemates (indicated by “rac” nomenclature) or pure enantiomers (indicated by “R” or “S” nomenclature).
Sample Collection and Bioanalysis. Blood samples (approximately 120 μL) were collected under light isoflurane anesthesia (Surgivet®) from the retro orbital plexus at 0.08, 0.25, 0.5, 1, 2, 4, 8, and 24 h (total 8 time points/rat, 4 rats per administration route per compound). Immediately after blood collection, plasma was harvested by centrifugation at 4000 rpm for 10 min at 4° C. and samples were stored at −70±10° C. until bioanalysis. For bioanalysis, 25 μL aliquots of plasma study samples or spiked plasma calibration standards were added to individual pre-labeled micro-centrifuge tubes followed by 100 μL of an internal standard solution (glipizide, 500 ng/mL in acetonitrile) except for blanks, where 100 μL of acetonitrile was added. Samples were vortexed for 5 minutes and then centrifuged for 10 minutes at 4000 rpm at 4° C. Following centrifugation, 100 μL of each clear supernatant was transferred to a 96 well plate and analyzed with a fit-for-purpose LC-MS/MS method, with authentic samples of each analyte used for calibration and identification. In the case of compounds 14R and 88R, their metabolite 11R was also quantified in plasma samples.
Data Analysis. Pharmacokinetic parameters were estimated using the non-compartmental analysis tool of Phoenix® WinNonlin software (Ver 8.0).

Series [3] is described as follows: Exposure after intraperitoneal administration in mice. It counts as in vivo. As to conditions: CD-1 mice; for AUC(0-inf) / Cmax: male, mouse; for Cmax and AUC compared to ketamine at 10 mg/kg: plasma and brain. The method, then: Animals. Male CD-1 mice were used in these studies Animals were randomly assigned to treatment groups and were fasted for 4 h before dosing.
Drugs. Test compounds (HCl salts) were dissolved in de-ionized water and administered intraperitoneally (ip) at the indicated doses (calculated based on freebase) and at a volume of 5 mL/kg body weight. Compounds were tested as the racemates (indicated by “rac” nomenclature) or pure enantiomers (indicated by “R” or “S” nomenclature), as indicated.
Pharmacokinetics. Blood samples were collected under 2,2,2-tribromoethanol anesthesia (150 mg/kg, ip) from the orbital sinus at 0.083, 0.25, 0.5, 1, and 2 h (ketamine, 4 animals per time point) or 0.083, 0.25, 0.5, 1, 2, 4, and 8 h (14R and 14S, 4 animals per time point) into microcontainers containing K2EDTA Immediately after collection of blood, mice were euthanized by cervical dislocation and brain samples were collected at the same time points. All samples were immediately processed, flash-frozen, and stored at −70° C. until subsequent analysis. Plasma samples were separated by centrifugation of whole blood and aliquots (50 μL) were mixed with 200 μL, of internal standard solution (400 ng/mL in 1:1 v/v CH3CN:MeOH). After mixing by pipetting and centrifuging for 4 min at 6000 rpm, 0.5 μL of each supernatant was analyzed for drug using a fit-for-purpose liquid chromatography-tandem mass spectrometry (LC-MS/MS) method, with authentic samples of each analyte used for calibration and identification. Brain samples (weight 200 mg±1 mg) were dispersed in 800 μL of internal standard solution (400 ng/mL in 4:1 v/v MeOH:water) using zirconium oxide beads (115 mg±5 mg) in The Bullet Blender® homogenizer for 30 s at speed 8. After homogenization, the samples were centrifuged for 4 min at 14,000 rpm and 0.5 μL of each supernatant was analyzed for drug using a fit-for-purpose LC-MS/MS method, with authentic samples of each analyte used for calibration and identification.
Data Analysis. The drug concentrations of samples below the lower limit of quantitation (LLOQ) were designated as zero. Pharmacokinetic data analysis was performed using noncompartmental, bolus injection or extravascular input analysis models in WinNonlin 5.2 (PharSight). Data points below LLOQ were presented as missing to improve validity of t112 calculations.

The mark [4] stands for this setting: 10 mg/kg iv, read-out: AUC0-last (iv) (converted).
The mark [5] stands for this setting: 10 mg/kg iv, read-out: t1/2 (iv).
The mark [6] stands for this setting: 10 mg/kg po, read-out: AUC0-last (po) (converted).
[7] abbreviates: 10 mg/kg po, read-out: t1/2 (po).

Like-named read-outs stand apart in the source and are kept apart here.

One may read the microsomal CLint as the capacity of the preparation to metabolise the compound, expressed as a volume cleared per time. Low values mean greater metabolic stability, high ones faster metabolism. With `Cc1ccccc1[C@]1(N)CCCCC1=O` [Compound 114R, (R)-2-amino-2-(o-tolyl)cyclohexan-1-one], in series [1], the half-life at 1 μM is 27.6 min and the microsomal CLint at 1 μM stood at 50.3 µL/min/mg.

Usually Cmax stands for the peak of the concentration-time curve. For the compound `O=C1CCCC[C@@]1(c1ccccc1)N1CCC1` [Compound 84S, (S)-2-(azetidin-1-yl)-2-phenyl-cyclohexan-1-one], the AUC(0-t) in series [2] (setting [4]) is 482 ng·h/mL; in series [2] (setting [6]) it was 77 ng·h/mL. In addition, the half-life in series [2] (setting [5]) was determined as 46.2 min; in series [2] (setting [7]), 37.2 min. In addition, the Cmax in series [2] (10 mg/kg po) worked out at 69.8 ng/mL. In series [2], this compound displayed an F of 16%.

As for `O=C1CCCCC1(c1ccccc1)N1CCCC1` (racemic) [Compound 27rac, 2-phenyl-2-(pyrrolidin-1-yl)cyclohexan-1-one], in series [1], the half-life at 1 μM was determined as 35.4 min. Further, the microsomal CLint at 1 μM in series [1] is 39.1 µL/min/mg. The values for the AUC(0-t) in series [2] (setting [4]) and in series [2] (setting [6]) were 1710 ng·h/mL and 563 ng·h/mL, respectively. Further, the half-life was determined as 97.2 min in series [2] (setting [5]) and 145 min in series [2] (setting [7]). Besides, the highest concentration (Cmax) in series [2] (10 mg/kg po) was 197 ng/mL. Besides, in series [2], the F is on record as 33%.

For the compound `COCCNC1(c2ccccc2)CCCCC1=O` (racemic) [Compound 29rac, 2-((2-methoxyethyl)amino)-2-phenylcyclohexan-1-one], the AUC(0-t) was 1710 ng·h/mL in series [2] (setting [4]) and 353 ng·h/mL in series [2] (setting [6]). Also, the results for the half-life in series [2] (setting [5]) and in series [2] (setting [7]) were 66 min and 69 min, respectively. This compound also returned a Cmax in series [2] (10 mg/kg po) of 321 ng/mL. In addition, the F in series [2] was 21%.

A word on the AUC(0-inf): it is the area under the concentration-time curve extrapolated to infinity. Low readings indicate low exposure, high ones high exposure. With `CNC1(c2ccccc2Cl)CCCCC1=O` (racemic) [rac-ketamine, racemic ketamine, reference compound], in series [3] (brain, 10 mg/kg ip), the AUC(0-inf) is 725 ng·h/mL and the highest level (Cmax) was 2250 ng/mL. Moreover, in series [3] (plasma, 10 mg/kg ip), the area under the curve AUC(0-inf) was 382 ng·h/mL and the highest level (Cmax) was 822 ng/mL.

Take `[2H]C([2H])([2H])N[C@@]1(c2ccccc2)CCCCC1=O` [Compound 88R, (R)-2-((methyl-d3)amino)-2-phenylcyclohexan-1-one]: the “formation of the metabolite 11R compared to 14R after oral administration” value in series [2] (10 mg/kg po) is reported as “reduced”. Also, the figures for the AUC(0-t) in series [2] (setting [4]) and in series [2] (setting [6]) were 1670 ng·h/mL and 335 ng·h/mL, respectively. In addition, the half-life in series [2] (setting [5]) came out at 59.4 min; in series [2] (setting [7]) it was 45.6 min. In series [2] (10 mg/kg po), this compound displayed a Cmax of 393 ng/mL. Moreover, the F in series [2] is on record as 20%.

For `O=C1CCCC[C@]1(c1ccccc1)N1CCC1` [Compound 84R, (R)-2-(azetidin-1-yl)-2-phenyl-cyclohexan-1-one], the figures for the AUC(0-t) in series [2] (setting [4]) and in series [2] (setting [6]) were 369 ng·h/mL and 11.9 ng·h/mL, respectively. Also, the half-life amounted to 37.2 min in series [2] (setting [5]) and 27 min in series [2] (setting [7]). Besides, in series [2] (10 mg/kg po), the concentration peaked (Cmax) at 15.5 ng/mL. For the same compound, the F in series [2] was determined as 3%.

Consider `CN[C@@]1(c2ccccc2)CCCCC1=O` [Compound 14R, (R)-2-(methylamino)-2-phenylcyclohexan-1-one], for which the “Cmax and AUC compared to ketamine at 10 mg/kg” value in series [3] (3.16 mg/kg ip) was “comparable to, or higher than”. Also, the AUC(0-inf) in series [3] (brain, 3.16 mg/kg ip) was 2530 ng·h/mL; in series [3] (plasma, 3.16 mg/kg ip), 703 ng·h/mL. Besides, the Cmax in series [3] (brain, 3.16 mg/kg ip) came out at 3320 ng/mL; in series [3] (plasma, 3.16 mg/kg ip), 1010 ng/mL; in series [2] (10 mg/kg po), 235 ng/mL. For the same compound, in series [3] (same dose, 3.16 mg/kg ip), the “exposure (AUC) to 14R relative to 14S” value was “roughly 2 fold”. Further, the figures for the AUC(0-t) in series [2] (setting [4]) and in series [2] (setting [6]) were 1960 ng·h/mL and 237 ng·h/mL, respectively. Further, the half-life in series [2] (setting [5]) came out at 37.8 min; in series [2] (setting [7]) it was 30.6 min. This compound also came in with a F in series [2] of 12%.

Consider `Cc1ccccc1[C@@]1(N)CCCCC1=O` [Compound 114S, (S)-2-amino-2-(o-tolyl)cyclohexan-1-one], for which, in series [1], the half-life at 1 μM worked out at 25.4 min and the microsomal CLint at 1 μM was 54.5 µL/min/mg.

Regarding `CN[C@]1(c2ccccc2)CCCCC1=O` [Compound 14S, (S)-2-(methylamino)-2-phenylcyclohexan-1-one], in series [3] (3.16 mg/kg ip), the “Cmax and AUC compared to ketamine at 10 mg/kg” value is on record as “comparable to, or higher than”. The AUC(0-inf) in series [3] (brain, 3.16 mg/kg ip) is 1220 ng·h/mL; in series [3] (plasma, 3.16 mg/kg ip), 385 ng·h/mL. The Cmax in series [3] (brain, 3.16 mg/kg ip) was 3370 ng/mL; in series [3] (plasma, 3.16 mg/kg ip), 875 ng/mL.

These data come from patent US11344510B2, “Arylcyclohexylamine derivatives and their use in the treatment of psychiatric disorders” (Gilgamesh Pharmaceuticals, Inc., priority 2019, dated 2022).
